Measured values from patent EP2653477B1, “SCORPION ACTIVE PEPTIDES AND PREPARATION METHODS AND APPLICATIONS THEREOF” (Wuhan More Biotechnology Co., Ltd., priority 2010, dated 2012).
pIC50: −log10 of the molar value. Bridge positions count the residues as written; N and C are the ends. Peptide text beside a SMILES is read from it.

Key:
rheumatoid arthritis = experiment: pristane-induced rheumatoid arthritis in SD rats, joint score and hind foot plantar swelling; type: in vivo; design: key to Score of joint: clinical score 1-4: 1 joint red/swollen=1 ... severe whole-limb arthritis=4; conditions: x±s, n=10; for Score of joint: arthritis rats, polypeptides 100 µg·kg^-1 (methotrexate 1.75 µg·kg^-1) subcutaneously once every day, score 1-4; for The swelling degree after the inflammation: volume difference of hind foot before and after the modeling
Description: […] Female (♀) specific pathogen free (SPF) inbred line SD rats (Wuhan University Laboratory Animal Center), body weight 150±10 g, were selected, and pristane was injected intradermally at the base of the tail of rats in experimental groups at a dose of 0.2 ml/rat, after they were acclimatized in a clean-grade environment for 1 week. Rheumatoid arthritis appeared after the rats were raised for only 2 weeks.
The rats having arthritis were randomized into: normal control group (negative control group), model negative control group (model rat + normal saline), model positive control group (model rat + methotrexate), administration group A (model rat + ADMR-011 polypeptide), administration group B (model rat + ADMR-016 polypeptide), administration group C (model rat + ADMR-019 polypeptide), administration group D (model rat + ADMR-023 polypeptide), and administration group E (model rat + ADMR-028 polypeptide), 10 rats for each group. The administration groups were injected subcutaneously at a dose of 100 µg·kg^-1, once every day in the morning, and administered continuously; the normal control group and the model negative control group were injected subcutaneously with equivalent amount of normal saline; and the model positive control group were injected subcutaneously with methotrexate (MTX) at a dose of 1.75 µg·kg^-1, once every day, and administered continuously.
The highest clinical score for each animal was recorded, and the average value of them was taken to be the average clinical score. The scoring criteria were: one joint of a rat was red and swollen, 1 point; two joints of a rat were red and swollen, 2 points; all the joints of a rat were red and swollen, 3 points; severe arthritis in the entire limb of a rat, 4 points. Table 2. Arthritis scores for rats of various experimental groups (-x±s)
From day 8 of the experiment, the hind foot plantar volume of the rat was measured and recorded every other day for 21 consecutive days, and the swelling degree (mL) was calculated according to the volume difference before and after the modeling. Table 3. The swelling degree of rats in various experimental groups (-x±s)

Kunming mice = experiment: toxicity study in mice, single intraperitoneal injection, 7 days observation; type: in vivo; conditions: 10 mg/kg intraperitoneally once (100 times the dose for animal model), observed 7 days
Description: 18∼20 g Kunming mice were selected, and divided into 4 groups, 8 male mice and 8 female mice for each group. The lyophilized powders of scorpion active polypeptides ADMR-011, ADMR-016, ADMR-019, ADMR-023 and ADMR-028 were dissolved with normal saline respectively, and the 3 groups of mice were injected intraperitoneally once respectively with polypeptide solution at a dose of 10 mg/kg (100 times of the dose for animal model), and the fourth group were injected with equivalent amount of normal saline as control.
After the administration, the respiration, motor and heartbeat in animals of all the groups were all normal, without significant abnormal reaction. 7 days after the administration, all the animals were conducted gross anatomy to observe the volume, color and texture of the main organs (heart, liver, spleen, lung, and kidney), and there was no macroscopic lesion. There were no significant difference between the 3 administration groups and the normal saline group.

Wistar rat EAE model = experiment: EAE (multiple sclerosis) model in Wistar rats induced by GPSCH-CFA, clinical scoring; type: in vivo; conditions: 100 µg·kg^-1 subcutaneously once every day, x±s, n=10, score 0-5
Text: Experimental animals: female inbred line Wistar rats (6∼8 week old, body weigh 150±10 g) and guinea pigs (300∼400 g, purchased from Wuhan University Laboratory Animal Center) were selected.
Formulating a mixed emulsion of whole spinal cord homogenate - Freund's complete adjuvant (GPSCH-CFA): a guinea pig was executed, and the spinal cord was rapidly removed, and prepared into 50% PBS homogenate by a ultrasonic disruptor (Sonics & Materials Inc, America), which was mixed with equal amount of Freund's complete adjuvant (BCG vaccine 10 mg/ml), and was pushed back and forth with syringes until forming a water-in-oil emulsion.
Wistar rat EAE model induced by EAE: GPSCH-CFA emulsion was injected intradermally into the foot pads of both the hind legs of Wistar rats, or simultaneously injected intradermally about 1×10^10 pertussis vaccine. The rats were weighed every day, and observed for their neurological symptoms. Experimental autoimmune encephalomyelitis appeared after the rats had been raised for 2 weeks.
The rats with experimental autoimmune encephalomyelitis (EAE) were divided into […] groups randomly: normal control group (negative control group), model control group (model rats + normal saline), administration group A (model rats + ADMR-011 polypeptide), administration group B (model rats + ADMR-016 polypeptide), administration group C (model rats + ADMR-019 polypeptide), administration group D (model rats + ADMR-023 polypeptide), and administration group E (model rats + ADMR-028 polypeptide), 10 rats for each group. For the administration groups, polypeptides ADMR-011, ADMR-016, ADMR-019, ADMR-023 and ADMR-028 were injected subcutaneously respectively at a dose of 100 µg·kg^-1, once every day in the morning. For the normal control group and the model control group, equivalent amount of normal saline was injected subcutaneously, and administered continuously. […] The highest clinical score for each animal was recorded, and the average value of them was taken to be the average clinical score.
The scoring criteria were: without any clinical symptom, 0 point; disappearance of tension in the tail, and observable mild awkward gait, 1 point; weakness in both the hind limbs, which can recover after passive body flipping, 2 points; paralysis in both the hind limbs, which can not recover after passive body flipping, 3 points; tetraplegia accompanied by incontinence of urine and feces, 4 points; moribund state or death, 5 points. Table 1. Scores for rats of various experimental groups in the EAE model (-x±s)

potassium channel Kv1.3 = target: T1, potassium channel Kv1.3 (Homo sapiens, UniProt P22001); experiment: whole-cell patch clamp, inhibition of Kv1.3 current in transfected COS-7 cells; type: cell-based; conditions: potassium channel Kv1.3 in COS-7 cells, read-out: polypeptide concentrations that inhibit the current by half (IC50 value)
T1 construct: expressed in transfected cells; host or cells: COS-7 cells, selected with 0.8 mg/mL geneticin
Description: COS-7 cells were cultured in a DMEM medium containing 10% fetal calf serum, at 37° C, 5% CO2. The recombinant plasmids of potassium channel Kv1.3 were transfected by using a Sofast™ transfection kit, and the transfected cells were selectively cultured in a medium containing 0.8 mg/mL geneticin. The pharmacological activities of scorpion active polypeptides ADMR-011, ADMR-016, ADMR-019, ADMR-023 and ADMR-028 were tested and analyzed by using an instrument of whole-cell patch clamp (EPC-10 dual-channel patch clamp amplifier HEKA, Elektronik, Lambrecht, Germany). The setting of the experimental parameters, the collecting of data, and the applying of stimulus were all controlled by Pulse software (Elektronik, Lambrecht, Germany). The filter of the instrument was set to be 10 kHz (Bessel), and the electrode impedance was 2∼5 MΩ. After the formation of giga-seal (1∼5 GΩ) between the electrode and cell membrane, an automatic c-fast was performed, and the membrane was broken by slightly applying negative pressure, then an automatic c-slow was performed. At a holding potential of -70 mV, depolarizing pulses, incrementing in 10 mV steps, with a step width of 80 ms , were given to stimulate from -60 mV to +50 mV, and the condition of current was observed. The polypeptides ADMR-011, ADMR-016 and ADMR-019 were accurately perfused, which was achieved by MPS-2 (INBIO Inc, Wuhan, China) perfusing system. After dissolving the three scorpion active polypeptides, they were applied by spraying via DAD Drug Application System (ALA), and the tip of the tube for drug application was about 100 µm away from the cell being recorded.
It can be known from Figure 16 to Figure 20 that, the pharmacological activity of ADMR-011 on potassium channel Kvl.3 was 91 pM, the pharmacological activity of ADMR-016 on potassium channel Kvl.3 was 2.58 nM, the pharmacological activity of ADMR-019 on potassium channel Kv1.3 was 1.41 nM, and the pharmacological activity of ADMR-023 and ADMR-028 on potassium channel Kvl.3 were 0.49 nM and 0.65 nM, respectively. Therefore, they are polypeptides with potent activity that are currently found internationally.

T1 sequence (P22001 whole entry): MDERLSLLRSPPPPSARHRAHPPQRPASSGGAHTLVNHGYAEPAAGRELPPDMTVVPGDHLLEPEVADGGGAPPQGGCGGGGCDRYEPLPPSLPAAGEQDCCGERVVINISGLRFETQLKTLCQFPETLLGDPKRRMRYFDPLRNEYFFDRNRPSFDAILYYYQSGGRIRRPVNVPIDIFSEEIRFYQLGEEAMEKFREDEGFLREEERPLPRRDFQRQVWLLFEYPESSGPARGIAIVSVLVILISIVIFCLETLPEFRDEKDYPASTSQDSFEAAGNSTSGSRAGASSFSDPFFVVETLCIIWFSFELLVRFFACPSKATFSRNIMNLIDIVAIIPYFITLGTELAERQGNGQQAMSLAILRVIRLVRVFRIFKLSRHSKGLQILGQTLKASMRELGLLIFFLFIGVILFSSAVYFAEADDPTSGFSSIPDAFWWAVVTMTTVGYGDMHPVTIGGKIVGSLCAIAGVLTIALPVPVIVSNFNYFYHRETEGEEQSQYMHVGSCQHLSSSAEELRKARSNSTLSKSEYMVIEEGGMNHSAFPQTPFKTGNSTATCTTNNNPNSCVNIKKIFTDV

| Compound | Score of joint (rheumatoid arthritis; 10 d) | Score of joint (rheumatoid arthritis; 15 d) | Score of joint (rheumatoid arthritis; 21 d) | The swelling degree after the inflammation (rheumatoid arthritis; d8) [mL] | The swelling degree after the inflammation (rheumatoid arthritis; d15) [mL] | The swelling degree after the inflammation (rheumatoid arthritis; d22) [mL] | The swelling degree after the inflammation (rheumatoid arthritis; d28) [mL] | toxicity in mice (Kunming mice) | Average clinical scores (Wistar rat EAE model; 8 d) | Average clinical scores (Wistar rat EAE model; 10 d) | Average clinical scores (Wistar rat EAE model; 12 d) | Average clinical scores (Wistar rat EAE model; 14 d) | pIC50 (potassium channel Kv1.3) |
| --- | --- | --- | --- | --- | --- | --- | --- | --- | --- | --- | --- | --- | --- |
| CC[C@H](C)[C@H](NC(=O)CNC(=O)[C@@H](N)C(C)C)C(=O)N[C@@H](CC(N)=O)C(=O)N[C@H](C(=O)N[C@@H](CCC(N)=O)C(=O)N[C@H]1CSSC[C@@H]2NC(=O)[C@H](CCC(N)=O)NC(=O)CNC(=O)[C@H](Cc3ccccc3)NC(=O)[C@H](CCCNC(=N)N)NC(=O)[C@H](CCSC)NC(=O)CNC(=O)[C@H](C)NC(=O)[C@H](CC(=O)O)NC(=O)[C@H](CCCCN)NC(=O)[C@@H]3CSSC[C@@H](C(=O)N[C@H](C(=O)N4CCC[C@H]4C(=O)N[C@@H](CCCCN)C(=O)O)[C@@H](C)O)NC(=O)[C@H](CC(=O)O)NC(=O)[C@H](CSSC[C@H](NC(=O)[C@H](CCC(N)=O)NC(=O)[C@H](CCCNC(=N)N)NC(=O)[C@H](CO)NC(=O)CNC(=O)[C@H](CC(N)=O)NC1=O)C(=O)N[C@@H](CC(C)C)C(=O)N[C@@H](CCCCN)C(=O)N1CCC[C@H]1C(=O)N3)NC(=O)[C@H]([C@@H](C)O)NC(=O)CNC(=O)[C@H](CC(N)=O)NC(=O)[C@H]([C@@H](C)CC)NC2=O)C(C)C [ADMR-019] (H-VGINVQCNGSRQCLKPCKDAGMRFGQCINGTCDCTPK-OH; disulfide 7-27, 13-32, 17-34 (inferred); N-terminus and C-terminus assumed) | 1.78±0.48 | 2.17±0.55 | 1.81±0.77 | 0.034 ± 0.011 | 0.27 ± 0.07 | 0.34 ± 0.11 | 0.37 ± 0.13 | no significant toxicity | 0.53±0.16 | 0.93±0.46 | 1.19±0.51 | 1.37±0.34 | 8.85 |
| CC[C@H](C)[C@H](NC(=O)CNC(=O)[C@@H](N)C(C)C)C(=O)N[C@@H](CC(N)=O)C(=O)N[C@H](C(=O)N[C@@H](CCC(N)=O)C(=O)N[C@H]1CSSC[C@@H]2NC(=O)[C@H](CCC(N)=O)NC(=O)CNC(=O)[C@H](Cc3ccccc3)NC(=O)[C@H](CCCNC(=N)N)NC(=O)[C@H](CCSC)NC(=O)CNC(=O)[C@H](C)NC(=O)[C@H](CC(=O)O)NC(=O)[C@H](CCCCN)NC(=O)[C@@H]3CSSC[C@@H](C(=O)N[C@H](C(=O)N4CCC[C@H]4C(=O)N[C@@H](CCCCN)C(=O)O)[C@@H](C)O)NC(=O)[C@H](CC(=O)O)NC(=O)[C@H](CSSC[C@H](NC(=O)[C@H](CCC(N)=O)NC(=O)CNC(=O)[C@H](CO)NC(=O)[C@H](Cc4c[nH]cn4)NC(=O)[C@H](CC(N)=O)NC1=O)C(=O)N[C@@H](CC(C)C)C(=O)N[C@@H](CCCCN)C(=O)N1CCC[C@H]1C(=O)N3)NC(=O)[C@H](CCCCN)NC(=O)CNC(=O)[C@H](CC(N)=O)NC(=O)[C@H]([C@@H](C)CC)NC2=O)C(C)C [ADMR-023] (H-VGINVQCNHSGQCLKPCKDAGMRFGQCINGKCDCTPK-OH; disulfide 7-27, 13-32, 17-34 (inferred); N-terminus and C-terminus assumed) | 1.69±0.23 | 2.23±0.71 | 1.85±0.59 | 0.035 ± 0.010 | 0.25 ± 0.08 | 0.32 ± 0.14 | 0.29 ± 0.15 | no significant toxicity | 0.55±0.19 | 0.81±0.29 | 1.21±0.25 | 1.17±0.27 | 9.31 |
